Test results: ChEMBL document CHEMBL1158815, “Sesquiterpene lactones from Centaurea spinosa and their antibacterial and cytotoxic activities” (2005)
Values after ≈ are worked out from the molar mass of the structure shown. Active and inactive are the calls of the source. The rule behind the calls is not given here.

Experiments:
[1] = tested on: Pseudomonas aeruginosa; assay: Antimicrobial activity against Pseudomonas aeruginosa ATCC 27853 by microdilution method; assay type: functional, organism-based
[2] = tested on: Escherichia coli; assay: Antimicrobial activity against Escherichia coli ATCC 35218 by microdilution method; assay type: functional, organism-based
[3] = tested on: Staphylococcus aureus; assay: Antimicrobial activity against Staphylococcus aureus ATCC 6538 by microdilution method; assay type: functional
[4] = tested on: Proteus mirabilis; assay: Antimicrobial activity against Proteus mirabilis isolates by microdilution method; assay type: functional, organism-based
[5] = tested on: Micrococcus luteus; assay: Antimicrobial activity against Micrococcus flavus ATCC 10240 by microdilution method; assay type: functional
[6] = tested on: MCF7; assay: Cytotoxicity against human MCF7 cells after 48 hrs by SRB assay; assay type: functional; conditions: MCF7, 48 h
[7] = tested on: SF-268; assay: Cytotoxicity against human SF268 cells after 48 hrs by SRB assay; assay type: functional; conditions: SF-268, 48 h
[8] = tested on: OVCAR-3; assay: Cytotoxicity against human OVCAR-3 cells after 48 hrs by SRB assay; assay type: functional; conditions: OVCAR-3, 48 h
[9] = tested on: NCI-H460; assay: Cytotoxicity against human H460 cells after 48 hrs by SRB assay; assay type: functional; conditions: NCI-H460, 48 h
[10] = tested on: DLD-1; assay: Cytotoxicity against human DLD1 cells after 48 hrs by SRB assay; assay type: functional; conditions: DLD-1, 48 h
[11] = tested on: Bacillus cereus; assay: Antimicrobial activity against Bacillus cereus isolates by microdilution method; assay type: functional
[12] = tested on: DLD-1; assay: Cytotoxicity against human DLD1 cells at <40 uM after 48 hrs by SRB assay; assay type: functional, cell-based
[13] = tested on: MCF7; assay: Cytotoxicity against human MCF7 cells at <40 uM after 48 hrs by SRB assay; assay type: functional, cell-based
[14] = tested on: SF-268; assay: Cytotoxicity against human SF268 cells at <40 uM after 48 hrs by SRB assay; assay type: functional, cell-based
[15] = tested on: OVCAR-3; assay: Cytotoxicity against human OVCAR-3 cells at <40 uM after 48 hrs by SRB assay; assay type: functional, cell-based
[16] = tested on: NCI-H460; assay: Cytotoxicity against human H460 cells at <40 uM after 48 hrs by SRB assay; assay type: functional, cell-based
[17] = read-out: LC50 (the source's name)

| SMILES | Activity [1] | Activity [2] | MIC [3] [µg/mL] | Activity [4] | MIC [5] [µg/mL] | GI50 [6] [µM] | GI50 [7] [µM] | GI50 [8] [µM] | MIC [11] [µg/mL] | Activity [12] | Activity [13] | Activity [14] | Activity [15] | Activity [16] | also measured |
| --- | --- | --- | --- | --- | --- | --- | --- | --- | --- | --- | --- | --- | --- | --- | --- |
| C=C1C(=O)O[C@H]2[C@H]1[C@@H](OC(=O)C(=C)[C@@H](O)COC(C)=O)C[C@]1(C)[C@@H]2[C@@H](C=O)CC[C@H]1O | inactive | inactive | 5 (≈ 11.5 µM) | inactive | 5 (≈ 11.5 µM) |  |  |  |  |  |  |  |  |  |  |
| CC[C@]1(O)C[C@@H]2CN(CCc3c([nH]c4ccccc34)[C@@](C(=O)OC)(c3cc4c(cc3OC)N(C)[C@H]3[C@@](O)(C(=O)OC)[C@H](OC(C)=O)[C@]5(CC)C=CCN6CC[C@]43[C@@H]65)C2)C1 [VINBLASTINE] |  |  |  |  |  | < 0.01 | < 0.01 | < 0.01 |  |  |  |  |  |  | TGI [6]: 1.6 µM; TGI [8]: < 0.01 µM; CC50 [8, 17]: 0.92 µM; GI50 [9]: < 0.01 µM; TGI [9]: 0.35 µM; GI50 [10]: < 0.01 µM; TGI [10]: 2.44 µM; CC50 [10, 17]: 2.48 µM |
| C=C1C(=O)O[C@@H]2/C=C(\CO)CC/C=C(\C)C[C@H](OC(=O)C(=C)[C@@H](O)COC(C)=O)[C@@H]12 | inactive | inactive | 5 (≈ 11.9 µM) | inactive | 5 (≈ 11.9 µM) |  |  |  | 1.25 (≈ 2.97 µM) |  |  |  |  |  |  |
| C=C1C(=O)O[C@H]2[C@H]1[C@@H](OC(=O)C(=C)[C@@H](O)CO)C[C@]1(C)[C@@H]2[C@@H](C=O)CC[C@H]1O [MALACITANOLIDE] | inactive | inactive | 5 (≈ 12.7 µM) | inactive | 5 (≈ 12.7 µM) |  |  |  |  |  |  |  |  |  |  |
| C=C[C@]1(C)C[C@H](OC(=O)C(=C)[C@@H](O)CO)[C@@H](C(=C)C(=O)OC)[C@H](O)C1C(=C)CO (stereo partly drawn) | inactive | inactive | 5 (≈ 12.2 µM) | inactive |  |  | 37.6 | 31.9 |  | inactive | inactive | inactive | inactive | inactive |  |
| C=C[C@]1(C)C[C@H](OC(=O)C(=C)[C@@H](O)CO)[C@H]2C(=C)C(=O)O[C@@H]2[C@H]1C(=C)CO | inactive | inactive | 5 (≈ 13.2 µM) | inactive | 5 (≈ 13.2 µM) |  | 29.3 |  | 1.25 (≈ 3.3 µM) |  | inactive | inactive |  |  |  |
| C=C1C(=O)O[C@H]2[C@H]1[C@@H](OC(=O)C(=C)[C@@H](O)CO)C[C@]1(C)[C@@H]2[C@H](C=O)CC[C@H]1O | inactive | inactive | 5 (≈ 12.7 µM) | inactive | 0.625 (≈ 1.58 µM) | 31.7 |  | 36.4 | 5 (≈ 12.7 µM) | inactive | inactive | inactive | inactive | inactive | GI50 [9]: 32.4 µM |
| C=C[C@]1(C)C[C@H](OC(=O)C(=C)[C@@H](O)CO)[C@H]2C(=C)C(=O)O[C@@H]2[C@H]1C(=C)C=O | inactive | inactive | 5 (≈ 13.3 µM) | inactive | 0.625 (≈ 1.66 µM) | 10 | 7.7 | 4.7 | 1.25 (≈ 3.32 µM) | inactive | inactive | inactive | inactive | inactive | TGI [7]: 38 µM; GI50 [9]: 37 µM |
| C=C1C(=O)O[C@@H]2/C=C(\CO)CC/C=C(\C)C[C@H](OC(=O)/C(=C/COC(C)=O)CO)[C@@H]12 | inactive | inactive | 5 (≈ 11.9 µM) | inactive | 5 (≈ 11.9 µM) |  |  |  | 1.25 (≈ 2.97 µM) |  |  |  |  |  |  |
| CN[C@@H]1[C@H](O[C@H]2[C@H](O[C@H]3[C@H](O)[C@@H](O)[C@H](N=C(N)N)[C@@H](O)[C@@H]3N=C(N)N)O[C@@H](C)[C@]2(O)C=O)O[C@@H](CO)[C@H](O)[C@H]1O [STREPTOMYCIN] |  |  | 5 (≈ 8.6 µM) |  | 0.1 (≈ 0.172 µM) |  |  |  | 0.1 (≈ 0.172 µM) |  |  |  |  |  |  |
| C=C1C(=O)O[C@@H]2/C=C(\CO)CC/C=C(\C)C[C@H](OC(=O)C(=C)[C@H](O)CO)[C@@H]12 [CNICIN] | inactive | inactive |  | inactive | 5 (≈ 13.2 µM) | 37.8 |  | 37.4 | 1.25 (≈ 3.3 µM) | inactive | inactive | inactive | inactive | inactive |  |
| C=C1C(=O)O[C@@H]2[C@H]1[C@@H](OC(=O)/C(=C/COC(C)=O)CO)C[C@]1(C)[C@@H]2[C@@H](C=O)CC[C@H]1O | inactive | inactive | 3.5 (≈ 8.02 µM) | inactive | 0.437 (≈ 1 µM) |  |  |  |  |  |  |  |  |  |  |
